Patent US20130190263A1 (LABORATORIO DE DIAGNOSTICO GAM, S.A., priority 2010, published 2013)
Values after ≈ are worked out from the molar mass of the structure shown.

How the values were obtained:
[1] = tested on: ISA virus; assay: Inhibition assay of the replicative cycle of ISAV in SHK-1 cells (real-time RT-PCR of supernatant); assay type: cell-based
[2] = tested on: ISA virus; assay: Example 1: necropsies analysis of infected treated fish; assay type: in vivo, Salmo salar; details: infected fish of tanks T1 and T2; FIGS. 14 and 15
Description: The necropsy of the fish in the assay of controlled environment was made through external and internal clinical analysis, with registration of morphometric parameters, description and registration of pathological features (necropsy itself), sampling of internal organs (heart, kidney, spleen and gills) in ethanol and RNA later, with counter samples (i.e. duplication of the samples of the organs same), along with the sample of muscle locket with skin to be used afterwards in analysis of deficiency (presence of the Antiviral in the muscle).
The fish were subjected to necropsy process mostly within 24 hours post sampling.
At the end of the assay all fish were euthanized and necropsied.

[3] = tested on: ISA virus; assay: Example 1: hematocrit of ISAV-infected treated fish; assay type: in vivo, Salmo salar; details: live fish
[4] = Degradation when autoclaved at 121° C., 15 psi, 25% relative humidity; assay type: physicochemical
[5] = tested on: SHK-1 cells; details: Atlantic salmon, 3 days
[6] = 48 hours
[7] = tested on: VHSV virus (Viral Hemorrhagic Septicemia Virus); details: EPC cells, cited from earlier work
[8] = tested on: IPNV; details: solution in the tank, exposure once during two hours; cited from earlier work
[9] = tested on: RNA viruses; details: in general, in vitro; read-out: EC50 values (effective concentration 50%); cited from earlier work
[10] = tested on: cell cultures; details: cited from earlier work
[11] = tested on: SHK-1 cells; assay: Cytotoxicity: cell viability of SHK-1 cells (propidium iodide cytometry); details: relative to effective concentration
[12] = Example 1: toxicity in healthy uninfected fish given the highest dose (tank C2)
[13] = tested on: ISA virus; assay: Example 1: determination of viral load in heart samples (real-time RT-PCR, TCID50); details: for viral load in infected fish (intraperitoneal): FIG. 9

NC(=O)c1ncn([C@@H]2O[C@H](CO)[C@@H](O)[C@H]2O)n1 [ribavirin, 1-beta-D-ribofuranosyl-1H-1,2,4-triazole-3-carboxamide]
EC50 ([1]; 72 h, read-out: concentration which inhibits 50% of ISA virus replication (EC50)): ~0.4 µg/mL (≈ 1.64 µM)
necropsy findings [2]: mild inflammatory signs
hematocrit ([3]; tank T1, infected, dose of 800 μg/mL): ~45%
hematocrit ([3]; tank T2, infected, dose of 400 μg/mL): ~45%
% Antiviral ([4]; 5 minutes in autoclave): 97.2%
% Antiviral ([4]; 10 minutes in autoclave): 91.9%
% Antiviral ([4]; 20 minutes drying + 30 minutes in autoclave): 99.5%
% Antiviral ([4]; 30 minutes in autoclave): 90.3%
concentration that produces 50% of cell toxicity (CC50) [5]: > 400000 µg/mL
stability of the aqueous solution [6]: ≤ 48 h
RNA inhibition ([7]; 25 μg/ml added at 0 hours post infection, at 10 hours post infection): 99.8%
inhibition of the virus ([7]; concentrations of 5, 10 and 25 μg/ml): strong inhibition
decreased rate of dead fish [8]: about 5%
EC50 [9]: ≥ 1 µM
CC50 [10]: 100 µg/mL (≈ 409 µM)
no cytotoxicity in concentrations times higher than the actual [11]: up to 10^7 times
signs of anemia ([12]; healthy fish receiving a high dose (C2)): no signs of developing anemia
hematocrit ([12]; tank C2, healthy, dose of 1600 μg/mL): 54%
viral load in dead fish ([13]; highest dose (T1) compared with T2 and C3, FIG. 8): significantly lower
viral load in infected fish (intraperitoneal) ([13]; highest dose (T1)): lower
viral load in infected fish (intraperitoneal) ([13]; lowest dose (T2) versus untreated (C3)): practically the same
average viral load (total) ([13]; tanks T1 and T2 versus C3, FIG. 6): smaller than the uninfected fish

CCOC(=O)C1=C[C@@H](OC(CC)CC)[C@H](NC(C)=O)[C@@H](N)C1 [oseltamivir]
inhibition of the replication of ISA virus ([1]; concentrations as high as 300 μg/mL, SHK-1 cells, 3 days post-infection, FIG. 1): no more than 60%

O=C(O)C1=C[C@@H](O)[C@@H](O)[C@H](O)C1 [shikimic acid]
viral replication inhibition ([1]; up to concentrations of 300 μg/ml, FIG. 2): no viral replication inhibition
